ChEMBL document CHEMBL3045346, “In vivo evaluation of substituted 2,3-diaryl acrylophenone amide derivatives as anti-implantation agents” (2009)
Active and inactive are the calls of the source. The rule behind the calls is not given here.

What follows are molecules tested on Rattus norvegicus (assay: Anti-implanatation activity in female Rattus norvegicus Sprague-Dawley (rat) assessed as implantation in uterine horns at 10 mg/kg, po administered on day 1 to 5 post-coitum measured on day 10 of pregnancy by laparotomy).
Format: functional

Row | SMILES | Activity
1 | CCCCNC(=O)COc1ccc(/C=C(/C(=O)c2ccc(OC)cc2)c2ccc(OC)cc2)cc1 | 67%
2 | CCCCN(C)C(=O)COc1ccc(/C=C(/C(=O)c2ccc(OC)cc2)c2ccc(OC)cc2)cc1 | inactive
3 | CCCCCCCCCCCCNC(=O)COc1ccc(/C=C(/C(=O)c2ccc(OC)cc2)c2ccccc2)cc1 | 67%
4 | CCCCN(C)C(=O)COc1ccc(/C=C(/C(=O)c2ccc(OC)cc2)c2ccccc2)cc1 | 67%
5 | CCCCCCCCNC(=O)COc1ccc(/C=C(/C(=O)c2ccc(OC)cc2)c2ccccc2)cc1 | 33%
6 | CCCCCCCCNC(=O)COc1ccc(/C=C(/C(=O)c2ccc(OC)cc2)c2ccc(OC)cc2)cc1 | 100%
7 | CCCCCCCCCNC(=O)COc1ccc(/C=C(/C(=O)c2ccc(OC)cc2)c2ccccc2)cc1 | inactive
8 | CCCNC(=O)COc1ccc(/C=C(/C(=O)c2ccc(OC)cc2)c2ccccc2)cc1 | inactive
9 | CCCCCCCCCCCCNC(=O)COc1ccc(/C=C(/C(=O)c2ccc(OC)cc2)c2ccc(OC)cc2)cc1 | inactive
10 | CCCCCCN(CC)C(=O)COc1ccc(/C=C(/C(=O)c2ccc(OC)cc2)c2ccccc2)cc1 | 33%
11 | CCCCNC(=O)COc1ccc(/C=C(/C(=O)c2ccc(OC)cc2)c2ccccc2)cc1 | inactive
12 | COc1ccc2c(c1)OC(C)(C)[C@H](c1ccccc1)[C@H]2c1ccc(OCCN2CCCC2)cc1 (relative stereo) [REL-ORMELOXIFENE] | 100%
